Assay results published in PubChem BioAssay AID1845206 (Molecular Pharmacology Branch, DTP, NCI, 2023).

Test system: NCI-H1618 multicellular tumor spheroid viability
Test: Anticancer human tumor NCI-H1618 cell line growth inhibition;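 note: spheroids exposed to agents for 7 days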
Details: for IC50: curve of first compound; for viability, T/C: stronger effect = lower value
Excerpt: Multicellular complex tumor spheroid response to DNA repair inhibitors in combination with DNA-damaging drugs
This study explores the anticancer activities of DNA-damaging drugs and inhibitors of DNA damage repair, both as single agents and in combinations. Complex tumor spheroids comprised of malignant cells, endothelial cells and mesenchymal stem cells served as an in vitro model for human solid tumors. This model system incorporates physiologically relevant features and patient-derived or established malignant cell lines with clinically relevant genetic alterations from many tumor types. Twenty-six patient-derived or established malignant cell lines were evaluated representing sarcoma, melanoma, small cell lung cancer (SCLC), non-small cell lung cancer (NSCLC), as well as bladder, ovarian and pancreatic cancers. The concentration ranges selected for each drug and investigational agent were based upon clinically achievable concentrations if the clinical Cmax of the agent was known.
Compounds. The drugs and compounds olaparib (NSC753686), talazoparib (NSC767125), berzosertib (NSC777718), elimusertib (NSC800525), nedisertib (NSC802822), VX-984 (NSC792969), AZD-1390 (NSC803789), temozolomide (NSC362856), topotecan (NSC609699), trabectedin (NSC813783), staurosporine (NSC755774), and gemcitabine (NSC613327) were obtained from the National Cancer Institute (NCI) Developmental Therapeutics Program Chemical Repository. The FDA-approved anticancer drug set is available from the Developmental Therapeutics Program at https://dtp.cancer.gov/organization/dscb/obtaining/available_plates.htm. […] The stock solutions were prepared in dimethyl sulfoxide (DMSO, Sigma-Aldrich, St. Louis, MO, cat. D2650) at 400-fold the tested concentration and stored at -70 degrees C. Prior to their use, the stock solutions were diluted in fresh medium and the final DMSO concentration in the assay was 0.25% (v/v). All drugs and investigational agents were tested over a range starting from a high concentration at or near the clinical Cmax and decreasing in half-log increments. If the clinical Cmax for an agent had not been determined, the highest concentration tested was 10 microM.
Cell Lines. The patient-derived cancer cell (PDC) lines: 156681-154-R-J1-PDC, 283228-195-R-J1-PDC, 287954-098-R-J1-PDC, 292921-168-R-J2-PDC, 349418-098-R-PDC, 425362-245-T-J1-PDC, 556581-035-R-J1-PDC, and BL0293-F563-PDC were received from the NCI Patient-Derived Models Repository (PDMR, https://pdmr.cancer.gov). The established cell lines HS-SY-2 (RRID:CVCL_8719), MPNST, and SYO-1 (RRID:CVCL_7146) were obtained from the Sloan Kettering Institute. The alveolar soft parts sarcoma cell line ASPS-1 (RRID:CVCL_S738) was established at the NCI and grown from internal seed stocks. The following established cell lines were purchased from the American Type Culture Collection (ATCC, Manassas, VA): G-401 (ATCC, cat. CRL-1441, RRID:CVCL_0270), SW982 (ATCC, cat. HTB-93, RRID:CVCL_1734), VA-ES-BJ (ATCC, cat. CRL-2138, RRID:CVCL_1785), NCI-H719 (ATCC, cat. CRL-5837, RRID:CVCL_1582), NCI-H196 (ATCC, cat. CRL-5823, RRID:CVCL_1509), NCI-H841 (ATCC, cat. CRL-5845, RRID:CVCL_1595), NCI-H1618 (ATCC, cat. CRL-5879, RRID:CVCL_1480), NCI-H1876 (ATCC, cat. CRL-5902, RRID:CVCL_1503), DMS 114 (ATCC, cat. CRL-2066; RRID:CVCL_1174), NCI-H211 (ATCC, cat. CRL-5824; RRID:CVCL_1529), and SW 1271 (ATCC, cat. CRL-2177, RRID:CVCL_1716). The small cell lung cancer cell line COR-L88 was purchased from Sigma-Aldrich (cat. 92031917-1VL, RRID:CVCL_1141). The non-small cell lung cancer cell lines NCI-H226 (RRID:CVCL_1544) and NCI-H322M (RRID:CVCL_1557) were established at the NCI and grown from internal seed stocks. Pooled donor human umbilical vein endothelial cells (HUVEC, Lonza, cat. CC-2519) and human mesenchymal stem cells (hMSC, Lonza, cat. PT-2501) were purchased from Lonza (Walkersville, MD).
Cell Culture. All cells were maintained in an incubator at 37 degrees C and 5% CO2 with 95% humidity. […]

[1] = second compound 0.003 µM, first compound 0.0949 µM
[2] = second compound 0.003 µM, first compound 0.3 µM
[3] = second compound 0.003 µM, first compound 0.949 µM
[4] = second compound 0.003 µM, first compound 3 µM
[5] = second compound 0.00949 µM, first compound 0.0949 µM
[6] = second compound 0.00949 µM, first compound 0.3 µM
[7] = second compound 0.00949 µM, first compound 0.949 µM
[8] = second compound 0.00949 µM, first compound 3 µM
[9] = second compound 0.03 µM, first compound 0.0949 µM
[10] = second compound 0.03 µM, first compound 0.3 µM
[11] = second compound 0.03 µM, first compound 0.949 µM
[12] = second compound 0.03 µM, first compound 3 µM
[13] = second compound 0.0949 µM, first compound 0.0949 µM
[14] = second compound 0.0949 µM, first compound 0.3 µM
[15] = second compound 0.0949 µM, first compound 0.949 µM
[16] = second compound 0.0949 µM, first compound 3 µM
[17] = second compound 0.3 µM, first compound 0.0949 µM
[18] = second compound 0.3 µM, first compound 0.3 µM
[19] = second compound 0.3 µM, first compound 0.949 µM
[20] = second compound 0.3 µM, first compound 3 µM

**Q.** Which IC50 (second compound 0.003 µM) does the source give for Cn1ncnc1[C@H]1c2n[nH]c(=O)c3cc(F)cc(c23)N[C@@H]1c1ccc(F)cc1 + CC[C@@]1(O)C(=O)OCc2c1cc1n(c2=O)Cc2cc3c(CN(C)C)c(O)ccc3nc2-1 here?
**A.** < 9.49 nM

**Q.** What about the IC50 (second compound 0.00949 µM) of the same molecule?
**A.** < 9.49 nM

**Q.** And the IC50 (second compound 0.03 µM)?
**A.** < 9.49 nM

**Q.** What about the IC50 (second compound 0.0949 µM) of the same molecule?
**A.** < 9.49 nM

**Q.** And the IC50 (second compound 0.3 µM)?
**A.** < 9.49 nM

**Q.** What about the viability, T/C (second compound 0.003 µM, first compound 0.00949 µM) of the same molecule?
**A.** 27.3%

**Q.** What about the viability, T/C (second compound 0.003 µM, first compound 0.03 µM) of the same molecule?
**A.** 6.33%

**Q.** What about the viability, T/C [1] of the same molecule?
**A.** 1.47%

**Q.** What about the viability, T/C [2] of the same molecule?
**A.** 1.41%

**Q.** And the viability, T/C [3]?
**A.** 1.48%

**Q.** And the viability, T/C [4]?
**A.** 2.21%

**Q.** And the viability, T/C (second compound 0.00949 µM, first compound 0.00949 µM)?
**A.** 1.59%

**Q.** And the viability, T/C (second compound 0.00949 µM, first compound 0.03 µM)?
**A.** 2.38%

**Q.** What about the viability, T/C [5] of the same molecule?
**A.** 1.8%

**Q.** And the viability, T/C [6]?
**A.** 1.98%

**Q.** What about the viability, T/C [7] of the same molecule?
**A.** 3.83%

**Q.** What about the viability, T/C [8] of the same molecule?
**A.** 1.52%

**Q.** What about the viability, T/C (second compound 0.03 µM, first compound 0.00949 µM) of the same molecule?
**A.** 1.39%

**Q.** What about the viability, T/C (second compound 0.03 µM, first compound 0.03 µM) of the same molecule?
**A.** 3.65%

**Q.** And the viability, T/C [9]?
**A.** 1.38%

**Q.** And the viability, T/C [10]?
**A.** 1.56%

**Q.** What about the viability, T/C [11] of the same molecule?
**A.** 1.83%

**Q.** What about the viability, T/C [12] of the same molecule?
**A.** 1.87%

**Q.** What about the viability, T/C (second compound 0.0949 µM, first compound 0.00949 µM) of the same molecule?
**A.** 1.47%

**Q.** What about the viability, T/C (second compound 0.0949 µM, first compound 0.03 µM) of the same molecule?
**A.** 1.59%

**Q.** And the viability, T/C [13]?
**A.** 1.43%

**Q.** And the viability, T/C [14]?
**A.** 1.39%

**Q.** What about the viability, T/C [15] of the same molecule?
**A.** 1.38%

**Q.** And the viability, T/C [16]?
**A.** 1.57%

**Q.** And the viability, T/C (second compound 0.3 µM, first compound 0.00949 µM)?
**A.** 1.23%

**Q.** And the viability, T/C (second compound 0.3 µM, first compound 0.03 µM)?
**A.** 1.22%

**Q.** And the viability, T/C [17]?
**A.** 1.27%

**Q.** What about the viability, T/C [18] of the same molecule?
**A.** 1.22%

**Q.** And the viability, T/C [19]?
**A.** 1.24%

**Q.** What about the viability, T/C [20] of the same molecule?
**A.** 1.3%

**Q.** Which IC50 (second compound 0.003 µM) does the source give for O=C(c1cc(Cc2n[nH]c(=O)c3ccccc23)ccc1F)N1CCN(C(=O)C2CC2)CC1 + CC[C@@]1(O)C(=O)OCc2c1cc1n(c2=O)Cc2cc3c(CN(C)C)c(O)ccc3nc2-1 here?
**A.** 1250 nM

**Q.** What about the IC50 (second compound 0.00949 µM) of the same molecule?
**A.** < 94.9 nM

**Q.** What about the IC50 (second compound 0.03 µM) of the same molecule?
**A.** < 94.9 nM

**Q.** What about the IC50 (second compound 0.0949 µM) of the same molecule?
**A.** < 94.9 nM

**Q.** And the IC50 (second compound 0.3 µM)?
**A.** < 94.9 nM

**Q.** What about the viability, T/C [1] of the same molecule?
**A.** 89%

**Q.** And the viability, T/C [2]?
**A.** 84%

**Q.** What about the viability, T/C [3] of the same molecule?
**A.** 61.2%

**Q.** What about the viability, T/C [4] of the same molecule?
**A.** 15%

**Q.** What about the viability, T/C (second compound 0.003 µM, first compound 9.49 µM) of the same molecule?
**A.** 3.53%

**Q.** And the viability, T/C (second compound 0.003 µM, first compound 30 µM)?
**A.** 3.79%

**Q.** And the viability, T/C [5]?
**A.** 2.05%

**Q.** And the viability, T/C [6]?
**A.** 2.74%

**Q.** And the viability, T/C [7]?
**A.** 1.49%

**Q.** What about the viability, T/C [8] of the same molecule?
**A.** 2.37%

**Q.** And the viability, T/C (second compound 0.00949 µM, first compound 9.49 µM)?
**A.** 9.35%

**Q.** And the viability, T/C (second compound 0.00949 µM, first compound 30 µM)?
**A.** 2.81%

**Q.** And the viability, T/C [9]?
**A.** 2.9%

**Q.** What about the viability, T/C [10] of the same molecule?
**A.** 1.36%

**Q.** And the viability, T/C [11]?
**A.** 1.85%

**Q.** What about the viability, T/C [12] of the same molecule?
**A.** 1.67%

**Q.** And the viability, T/C (second compound 0.03 µM, first compound 9.49 µM)?
**A.** 2.73%

**Q.** And the viability, T/C (second compound 0.03 µM, first compound 30 µM)?
**A.** 2.96%

**Q.** And the viability, T/C [13]?
**A.** 13.1%

**Q.** What about the viability, T/C [14] of the same molecule?
**A.** 1.67%

**Q.** And the viability, T/C [15]?
**A.** 2.53%

**Q.** What about the viability, T/C [16] of the same molecule?
**A.** 1.83%

**Q.** And the viability, T/C (second compound 0.0949 µM, first compound 9.49 µM)?
**A.** 2.3%

**Q.** And the viability, T/C (second compound 0.0949 µM, first compound 30 µM)?
**A.** 2.69%

**Q.** And the viability, T/C [17]?
**A.** 1.51%

**Q.** What about the viability, T/C [18] of the same molecule?
**A.** 1.22%

**Q.** What about the viability, T/C [19] of the same molecule?
**A.** 1.9%

**Q.** And the viability, T/C [20]?
**A.** 1.37%

**Q.** What about the viability, T/C (second compound 0.3 µM, first compound 9.49 µM) of the same molecule?
**A.** 1.77%

**Q.** What about the viability, T/C (second compound 0.3 µM, first compound 30 µM) of the same molecule?
**A.** 3.42%
